Assay results reported in publication PMC8512853, “Synthesis, Bioactivity, Pharmacokinetic and Biomimetic Properties of Multi-Substituted Coumarin Derivatives” (Molecules, 2021).

Assays:
[1] = ABTS radical scavenging assay; conditions: 6 min
Description: The ABTS radical cation scavenging assay is a decolorization assay frequently used as an antioxidant activity estimation protocol. […] The absorbance is measured at 734 nm and the antioxidant capacity is compared to a standard antioxidant solution, such as ascorbic acid.
For the evaluation of antioxidant activity, the scavenging capacities of all samples were measured via the ABTS assay, as previously described by Kontogiorgis et al. with some modifications. Briefly, an ethanolic standard ABTS solution (7 mM) was prepared by the addition of ABTS salt and potassium persulfate. […] Each sample was diluted in DMSO and tested in triplicate. The tested mixture contained 10–20 µL of sample and 990–980 µL of the ABTS solution, for a total volume of 1 ml. Blank samples contained equal amounts of DMSO instead of the coumarin analogues, and ascorbic acid was used as a reference sample for the final evaluation of the ABTS scavenging capacity. All mixtures were stored at room temperature to allow decolorization and measured after 6 min. The percentage reduction of the ABTS radical was evaluated according to the following Equation (3):(3) % Reduction=Control OD (mean)−Sample OD (mean)/Control OD (mean)×100

[2] = system: HaCaT cells; test: DCF-DA assay (intracellular ROS after H2O2); type: cell-based, human; conditions: Homo sapiens, 100 μΜ, H2O2 treatment, 24 h, read-out: DCFDA Assay, % (100 μΜ)
From the text: In the setting of evaluating bioactive compounds in terms of antioxidant capacity in various cell lines, DCF-DA is the most widely used assay for the detection of intracellular H2O2 and oxidative stress. DCF-DA is cell-permeable and is hydrolyzed intracellularly to the DCFH carboxylate anion, which is retained in the cell.
DCFDA is a fluorescent dye that measures the activity of hydroxyl radicals, peroxyl radicals, and other reactive oxygen species (ROS) within the cell. The DCFDA analysis protocol is based on the diffusion of DCFDA into the cell. It is then deacetylated from cellular esterases to a non-fluorescent compound, which is later oxidized by ROS to 2’,7’ -dichlorofluoroscein (DCF). The produced compound (DCF) is fluorescent and is detected by fluorescence spectroscopy at 485/535 nm (excitation/emission).
For the experimental procedure a standard solution of DCF-DA (20mM) in DMSO was prepared which was stored in the dark (−20 °C) until use. In a 96-well plate, cells were cultured to a density of 3 × 10^4 cells/well.
The cells remained in the incubator (37 °C, 5% CO2) for 24 h, after which an appropriate amount of H2O2 (2 mM) was added and the dish was returned for incubation for the next 2 h. This was followed by the addition of the test substances (100μM) and incubation for 24 h. At the end of the treatment time, all wells were washed with PBS, and DCF-DA solution (working concentration: 10 μM) (in 200 μL of nutrient) was added and incubated for 40 min.
After incubation, the medium with the DCF-DA was removed and replaced with FBS-free DMEM. The measurement of the […] was made immediately after that in a plate reader at 495/530 nm (excitation/emission).
All samples were tested in triplicates, against a control (without effects), blank (without cells), and positive control (standard 100 μM Ascorbic acid solution was used).
The percentage of antioxidant capacity (%) was calculated according to the following Equation (6) evaluating the presence of ROS [42]:(6) % AI=( OD Sample 530 nm−Blank)−(OD Control 530 nm−Blank)/(OD Control 530 nm−Blank) × 100

[3] = system: A549 cells; test: MTT cytotoxicity assay, A549; type: cell-based, human; conditions: Homo sapiens; A549, 100 μΜ, 24 h; read-out: Cell Toxicity A549 % (100 μΜ)
Description: (§1) Furthermore, the coumarin compounds synthesized in this study were also evaluated for their cytotoxicity against A549 (adenocarcinomic human alveolar basal epithelial cells) and A375 (human melanoma) cell lines.
(§2) This protocol was used for the evaluation of cell viability and all the cell lines. It must be noted that this assay describes the count of cells that remain alive after the treatment. For the experimental procedure a standard solution of MTT 1mg/mL in PBS was prepared which after filtration ([…] filter (Millipore, Carrigtwohill, Ireland)) was stored in the dark (4–8 °C) until use. In a 96-well plate, HaCaT, A549 and A375 cells were seeded in a number of 30 × 10^4 cells/well for each evaluation series respectively. The cells were incubated (37 °C, 5% CO2) for 24 h, followed by the addition of the tested analogues (100 μM, diluted in DMEM) and another 24-h incubation. Next, appropriate amount of MTT was added in the tested wells and the plate returned to the incubator for the next 4 h for the formation of the formazan crystals. The formazan crystals were then redissolved by adding DMSO (100 μL) and stirring lightly for 40 min, after which the absorbance was measured in a plate reader at 540 nm with a reference absorbance of 720 nm.
(§3) All samples were tested in triplicate, against a control (only cells), blank (no cells), and positive control (100 μM standard silibinin solution was used as a “cell-killing” standard).

[4] = system: A375 cells; test: MTT cytotoxicity assay, A375; type: cell-based, human; conditions: Homo sapiens, A-375, 24 h, A375, 100 μΜ, read-out: Cell Toxicity A375 % (100 μΜ)
Description: as §1, §2, §3

[5] = MTT cell viability assay, HaCaT; type: cell-based, human; conditions: human, HaCaT cells, 100 μΜ, 24 h
From the text: The MTT assay (3- [4,5-dimethylthiazol-2-yl] -2,5 diphenyl tetrazole) is based on the conversion of MTT to formazan crystals by living cells, which determines mitochondrial activity. Since for most cell populations total mitochondrial activity is related to the number of viable cells, this assay is widely used to measure the in vitro cytotoxic effects of drugs on various cell lines or primary cells. The principle of the MTT assay is that for most viable cells the mitochondrial activity is stable, and therefore, an increase or decrease in the number of viable cells is linearly related to mitochondrial activity. The mitochondrial activity of the cells is reflected by the conversion of the MTT tetrazole salt to formazan crystals (bright purple), which can be solubilized (in this protocol with DMSO) for homogeneous measurement. Thus, any increase or decrease in the number of viable cells can be detected by measuring the formazan concentration reflected in the optical density (OD) measurement at 540 nm with a reference absorption of 720 nm.
All the compounds were tested for their cytotoxic activity against blank and control samples in the human epidermal keratinocyte line (HaCaT), at the concentration of 100 μΜ, and the results are presented in Table 4.
as §2, §3

[6] = Hydroxyl (HO•) free radical scavenging assay (competition with DMSO)
From the text: The hydroxyl (HO^•) free radical is considered as the most toxic and reactive radical among the ROS, leading to cellular or protein damage, membrane destruction, and even to cellular death when encountered in excess concentration. In this context, the evaluation of the hydroxyl radical scavenging activity of the coumarin analogues was essential. Hydroxyl radicals are mainly produced by the Haber–Weiss reaction in the presence of iron or copper ions. In this protocol, iron-EDTA solution, which catalyzes the autooxidation of ascorbic acid, was used as the hydroxyl radical generation system. In general, the hydroxyl radicals formed oxidize the DMSO to form formaldehyde. The reaction involves the initial interaction of DMSO with the hydroxyl radicals to give methyl radicals, with the final product being formaldehyde, which is determined by Nash method. The intensity of the yellow solution formed was measured at 412 nm against a reagent blank.
For the evaluation of hydroxyl radical scavenging ability, the protocol described by Kontogiorgis et al. was used. In short, each sample was tested in quadruplicate (A, B, C, D). For A and B, 10 μL of coumarin analogs diluted in DMSO (100 mM) were added; for C and D were the respective blanks. Standards (containing DMSO solution) and blanks were all prepared in a similar manner; to the latter an equal amount (10 µL) of solvent was added instead of the tested analogues. According to the protocol described by Klein et al., standard solutions of EDTA, FeCl3, ascorbic acid, and buffer solution (pH 7.4) were also added to each of the tested mixtures. All mixtures were incubated at 37 °C for 30 min, and then 1 mL of Nash solution and […] of CCl3COOH solution were added. After a 10min incubation at 60 °C to allow the formation of the yellow mixture, the absorbance was measured at […].
The results were calculated as performance percentages in relation to the respective standards and blanks according to the following Equation (4):(4) % Scavenging ability= Mean OD(A+B)−Mean OD(C+D)/Mean OD(A+B)

[7] = Inhibition of AAPH induced linoleic acid oxidation (lipid peroxidation); conditions: 100 μΜ
From the text: AAPH induced linoleic acid oxidation has been developed as a quick and reliable antioxidant activity assay. It is based on the inhibition of linoleic acid oxidation, initiated by the thermal free radical producer 2,2′-azobis(2-amidinopropane) dihydrochloride (AAPH), providing a measure of how efficiently antioxidants protect against lipid oxidation in vitro. Oxidation of exogenous linoleic acid by AAPH is followed by UV spectrophotometry at 234 nm in a highly diluted sample [38].
For the reference sample in a UV cuvette, 10 μL of the test sample (100 μM diluted in DMSO), 10 μL linoleic acid (LA) (16 mM), and buffer solution (pH 7.4) were added to a final volume of 1ml. For the measurement sample, in a UV cuvette, 10 μL of test sample, 50 μL AAPH (40 mM), 10 μL LA, and buffer solution were added to a final volume of 1 mL. Standard and blank samples were prepared in the same way using DMSO (solvent) instead of the tested coumarin analogues. The absorbance was measured after 2 min at 37 °C at 234 nm. Results were obtained via the following Equation (5):(5) %Inhibition=(Standard−Blank)−(Reference Sample−Measurement Sample)/(Standard−Blank) × 100

Structure (SMILES) | ABTS^•+ % (100 μΜ) [1] [%] | inhibition at 100 µM [2] [%] | cytotoxicity at 100 µM [3] [%] | cytotoxicity at 100 µM [4] [%] | viability at 24 h, 100 μM [5] [%] | HO^• % (100 μΜ) scavenging [6] [%] | AAPH % inhibition (100 μΜ) [7] [%]
O=C1O[C@H]([C@@H](O)CO)C(O)=C1O [Ascorbic acid, reference compound] | 99.1 | 87 |  |  |  |  | 
COc1cc(C2Oc3cc([C@H]4Oc5cc(O)cc(O)c5C(=O)[C@@H]4O)ccc3OC2CO)ccc1O (some centres unmarked) [Silibinin, reference compound] |  |  | 78.3 | 84.4 | 35.7 |  | 
Cc1c(C)c2c(c(C)c1O)CCC(C)(C(=O)O)O2 (centres unmarked) [Trolox, reference compound] | 92.0 |  |  |  |  | 85.0 | 92
